The results in this text go back to US10973912B2, “Treatment for myopathy” (Children's Medical Center Corporation, priority 2015, dated 2021).

Holding throughout (assay type): in vivo, zebrafish (Danio rerio)
In assay [1] the test system is ryr1b homozygous mutant zebrafish. As for the experimental part: In two independent experiments, two pools of 20 larvae from heterozygous ryr1b matings were treated with DMSO or with one of three different concentrations of NIF (1.0-100.0 μg/mL) at 1 dpf and evaluated in terms of touch-evoked escape behaviors at 5 dpf (n=40). Following phenotypic scoring, all living embryos were genotyped using three-primer genomic PCR. Swimming scores for larvae genotype-confirmed as ryr1b homozygous mutants are shown as a percentage of the total number of living larvae in each dose category: 1=poor swimming; 2 or 3=moderate or wild-type swimming. NIF improved mobility of ryr1b mutants at a dose of 10 μg/mL. […] Phospho-Stat3 band intensities were normalized to β-Actin control bands and quantified in Image J (NIH).
FIGS. 12A-12C show a ketoprofen dose-response and proposed mechanistic link. […] FIG. 12B is a dose-response graph for ketoprofen (KETO). Two pools of 20 larvae from heterozygous ryr1b matings were treated with DMSO or four different concentrations of KETO (1.0-100.0 μg/mL) at 1 dpf and evaluated in terms of touch-evoked escape behaviors at 5 dpf (n=40). Following phenotypic scoring, all living embryos were genotyped using three-primer genomic PCR. Swimming scores for larvae genotype-confirmed as ryr1b homozygous mutants are shown as a percentage of the total number of living larvae in each dose category: 1=poor swimming, 2 or 3=moderate or wild-type swimming. […] Phosphorylated STATs form dimers, translocate to nuclei, and from there are associated with various transcriptional activities. Dubowitz, V. and Sewry, C. (2006) Muscle Biopsy: A Practical Approach. Elsevier-Health Sciences Division.
The relatively relaxed zebrafish was initially identified due to a spontaneous autosomal recessive mutation within the ryr1b gene^30. Specifically, ryr1b mutants carry a 4046 base pair (bp) DNA insertion in the intron between exons 48 and 49 that includes an additional 32 bp sequence found in mutant cDNA (FIG. 3)^30. Genotypes of individual embryos were examined using three-primer genomic PCR, with an expected wild-type band of 1,668 bp and a mutant band of 653 bp. Primer sequences were as follows: ryr1b #1 (forward): 5′-[…]-3′ (SEQ ID NO: 4); ryr1b #2 (reverse): 5′-[…]-3′ (SEQ ID NO: 5); and ryr1b #3 (reverse): 5′-[…]-3′ (SEQ ID NO: 6).
The primary and secondary screens only tested chemical pools and individual compounds at a single concentration (2.0 μg/mL). Although beneficial in a high-throughput context, this approach can result in false positives and false negatives. […] For analysis, pools of 20 larvae obtained from heterozygous ryr1b matings were treated in duplicate with DMSO or with one of three different concentrations of NIF (1.0-100.0 μg/mL) at 1 dpf and scored for touch-evoked escape behaviors at 5 dpf. All scored larvae were then genotyped using three-primer genomic PCR. […] Next, hit expansion was used to verify JAK-STAT as a potential molecular pathway involved in ryr1b mutant pathology. […] A higher effective dose for 5,15-DPP was consistent with the IC50 measurements reported for each compound^40,41.

The test system of assay [2] is ryr1b mutants. Kind of assay: Body angle measurement after 20 days of treatment. As to the method: In FIG. 10A, body angles of ryr1b mutants after 20 days of NIF treatment (10.0 μg/mL) are corrected and statistically indistinguishable from wild-type controls. […] Angles were measured by first drawing/extending straight lines between the eyes of the larva as well as along the midline of the trunk (shown by dotted red lines). The angle of intersection was determined using Adobe Photoshop CS3 software (WT-DMSO: 179.1±0.9°, n=6; WT-NIF: 176.8±1.1°, n=6; ryr1b-DMSO: 142.6±6.2°, n=11; ryr1b-NIF: 174.4±2.0°, n=4). Significance was determined by a one-way ANOVA (F=13.60, P<0.0001), followed by pairwise Tukey's HSD post hoc tests. […] Three independent trials were performed with larvae from three different clutches, examining a total of 14-20 wild-type and ryr1b larvae from both DMSO- and NIF-treated groups. Genotypes of individual embryos were confirmed by genomic PCR following the study. Significance was determined by a one-way ANOVA (F=10.03, P=0.0009), followed by pairwise Tukey's HSD post hoc tests. […] One representative 20-minute time interval within the recording period is shown.
This bending is likely a consequence of skeletal muscle weakness, and may be analogous to neck and trunk flexor weakness observed in human patients with MmD (FIG. 10A). To determine if NIF could correct this abnormality, larvae were treated with the compound from 1 to 20 dpf. After 20 days, body angles were measured as the angle of intersection between two lines, one drawn between the eyes of each larva and one drawn along the trunk midline. […] These improvements in morphology reflect long-term strengthening of ryr1b skeletal muscles as a result of exposure to NIF.

In assay [3] the test system is ryr1b mutants. Kind of assay: Kaplan-Meier survival of ryr1b mutants. The note with it: 10 μg/mL from 1 to 50 dpf. As to the method:
Kaplan-Meier survival curves of ryr1b mutants treated with either DMSO or NIF (10 μg/mL) from 1 to 50 dpf. Mutants were sorted from unaffected controls at 5 dpf using a touch-evoked escape behavior assay. Untreated fish all died by 35 days of life. Median survival of DMSO-versus NIF-treated mutants was 15.0 and 13.0 days, respectively.
In addition to their muscular defects, ryr1b mutants die prematurely^30. To examine whether long-term treatment with NIF positively impacts the life span of ryr1b mutants, affected larvae (selected at 5 dpf by touch-evoked escape behavior assay) were treated with compound from 1 to 50 dpf.

Entries after “also recorded” stand apart in the source; their conditions may differ.

Take `O=C(N/N=C/c1ccc([N+](=O)[O-])o1)c1ccc(O)cc1` [Nifuroxazide]: in assay [1] (treated at 1 dpf, touch-evoked escape behaviors at 5 dpf, tested 1.0-100.0 μg/mL), the “dose that improved mobility of ryr1b mutants / optimal activity” value stood at 10 µg/mL. Further, the “touch-evoked escape behaviors / mobility of ryr1b mutants” value in assay [1] (treated from 1 dpf, scored and genotyped at 5 dpf) is listed as “ryr1b mutants were among larvae that exhibited wild-type touch-evoked escape behaviors”. Besides, the “body angle, wild-type larvae” value in the assay with ryr1b mutants [2] (20 days of treatment, 10.0 μg/mL, WT, n=6) is 176.8±1.1 °. Moreover, the “body angle, ryr1b mutants” value with ryr1b mutants [2] (20 days of treatment, 10.0 μg/mL, ryr1b, n=4, ryr1b-DMSO 142.6±6.2) is 174.4±2.0 °. The “body angles of treated ryr1b mutants” value in the assay with ryr1b mutants [2] (treated from 1 to 20 dpf) is “significantly increased and statistically indistinguishable from unaffected controls”. In addition, the “survival of ryr1b mutants” value in the assay on ryr1b mutants [3] (listed as NIF) is recorded as “did not significantly differ; also recorded: two affected fish treated with NIF survived until termination of the study”. In addition, the median survival with ryr1b mutants [3] (ryr1b mutants, DMSO 15.0 days, log-rank P=0.5) turned out to be 13.0 days.
